Results on twelve compounds are retold here after US20250064941A1, “SIGLEC LIGANDS, CONJUGATES, AND METHODS OF USE THEREOF” (Osprey Biopharmaceuticals, Inc., priority 2023, published 2025).

Experiment [1] deals with T1, human Siglec-2/CD22 protein (Homo sapiens, UniProt P20273).
T1 construct: purchased Acro Biosystems SI2-H82E3
T1 sequence (P20273 20-847): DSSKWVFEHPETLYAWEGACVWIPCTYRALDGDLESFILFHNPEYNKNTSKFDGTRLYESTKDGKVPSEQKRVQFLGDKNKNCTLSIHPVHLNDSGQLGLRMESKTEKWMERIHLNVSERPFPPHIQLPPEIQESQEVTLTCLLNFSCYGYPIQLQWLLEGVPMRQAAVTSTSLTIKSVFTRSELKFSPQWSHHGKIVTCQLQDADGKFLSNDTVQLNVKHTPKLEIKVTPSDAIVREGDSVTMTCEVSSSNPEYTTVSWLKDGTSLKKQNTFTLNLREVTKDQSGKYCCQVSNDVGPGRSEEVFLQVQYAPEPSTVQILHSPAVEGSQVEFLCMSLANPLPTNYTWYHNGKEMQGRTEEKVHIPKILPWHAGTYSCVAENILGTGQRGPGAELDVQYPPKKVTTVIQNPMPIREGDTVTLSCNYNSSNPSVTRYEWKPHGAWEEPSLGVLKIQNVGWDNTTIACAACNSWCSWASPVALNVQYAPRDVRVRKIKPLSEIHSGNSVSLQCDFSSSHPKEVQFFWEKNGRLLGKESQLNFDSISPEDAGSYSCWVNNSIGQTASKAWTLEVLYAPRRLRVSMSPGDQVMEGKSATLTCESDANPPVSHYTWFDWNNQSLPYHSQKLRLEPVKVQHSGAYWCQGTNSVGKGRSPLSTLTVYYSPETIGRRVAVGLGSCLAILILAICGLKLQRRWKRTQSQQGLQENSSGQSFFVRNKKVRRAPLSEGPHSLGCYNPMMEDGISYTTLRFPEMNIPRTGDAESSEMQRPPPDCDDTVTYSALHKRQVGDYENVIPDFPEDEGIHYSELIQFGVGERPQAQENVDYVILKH
As to the kind of experiment: SPR binding affinity to human CD22. The note with it: steady-state analysis. In outline: (§1)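 SialoExo pretreatment, 4 h 37° C.; biotinylated CD22 on SA chip, Biacore 8K. Buffer 10 mM HEPES, 150 mM NaCl, 0.05% Tween-20, pH 7.5, 1% DMSO. Dissociation 120 s; solvent-corrected; steady-state KD.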

Experiment [2] addresses T2, mouse Siglec-2-Fc-Avi (CD22) (Mus musculus, UniProt P35329).
T2 construct: made in house
T2 sequence (P35329 22-708 limits assumed): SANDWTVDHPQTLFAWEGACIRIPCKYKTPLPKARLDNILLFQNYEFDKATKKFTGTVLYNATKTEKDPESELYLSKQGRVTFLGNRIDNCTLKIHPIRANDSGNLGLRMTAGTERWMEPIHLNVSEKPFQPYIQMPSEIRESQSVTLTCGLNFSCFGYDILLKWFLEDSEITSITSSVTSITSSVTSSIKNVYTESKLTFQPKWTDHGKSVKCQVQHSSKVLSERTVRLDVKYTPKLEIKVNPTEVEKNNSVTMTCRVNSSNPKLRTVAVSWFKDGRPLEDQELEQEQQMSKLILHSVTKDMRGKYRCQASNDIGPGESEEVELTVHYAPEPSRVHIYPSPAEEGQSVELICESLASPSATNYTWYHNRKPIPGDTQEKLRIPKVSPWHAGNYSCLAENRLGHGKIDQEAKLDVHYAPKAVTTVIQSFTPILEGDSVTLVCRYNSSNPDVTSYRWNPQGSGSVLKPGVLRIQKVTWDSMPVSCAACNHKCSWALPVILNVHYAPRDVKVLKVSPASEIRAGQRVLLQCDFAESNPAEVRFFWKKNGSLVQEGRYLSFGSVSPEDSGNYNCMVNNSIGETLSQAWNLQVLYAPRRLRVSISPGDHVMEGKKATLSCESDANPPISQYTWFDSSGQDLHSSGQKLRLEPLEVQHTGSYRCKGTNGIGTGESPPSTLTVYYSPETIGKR
The experiment in a line: SPR binding affinity to mouse CD22. The note with it: steady-state analysis. In outline:
as §1

For experiment [3], the target named is cynomolgus Siglec-2/CD22 (Macaca fascicularis, UniProt A0A2K5WCZ6). As to the kind of experiment: biochemical. The format is binding. To be noted: SPR, steady-state analysis; read-out: Affinity cyno CD22. In a few lines:
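SPR with desialylated (SialoExo, 4 h, 37° C.) cynomolgus CD22 amine-coupled to a CM5 chip. Running buffer 10 mM HEPES, 150 mM NaCl, 0.05% Tween-20, pH 7.5, 1% DMSO, with solvent correction; 120 s dissociation. Affinities from steady-state analysis.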

Bounds are passed on as bounds.

Sequence of cynomolgus Siglec-2/CD22 (A0A2K5WCZ6 entry or part of it): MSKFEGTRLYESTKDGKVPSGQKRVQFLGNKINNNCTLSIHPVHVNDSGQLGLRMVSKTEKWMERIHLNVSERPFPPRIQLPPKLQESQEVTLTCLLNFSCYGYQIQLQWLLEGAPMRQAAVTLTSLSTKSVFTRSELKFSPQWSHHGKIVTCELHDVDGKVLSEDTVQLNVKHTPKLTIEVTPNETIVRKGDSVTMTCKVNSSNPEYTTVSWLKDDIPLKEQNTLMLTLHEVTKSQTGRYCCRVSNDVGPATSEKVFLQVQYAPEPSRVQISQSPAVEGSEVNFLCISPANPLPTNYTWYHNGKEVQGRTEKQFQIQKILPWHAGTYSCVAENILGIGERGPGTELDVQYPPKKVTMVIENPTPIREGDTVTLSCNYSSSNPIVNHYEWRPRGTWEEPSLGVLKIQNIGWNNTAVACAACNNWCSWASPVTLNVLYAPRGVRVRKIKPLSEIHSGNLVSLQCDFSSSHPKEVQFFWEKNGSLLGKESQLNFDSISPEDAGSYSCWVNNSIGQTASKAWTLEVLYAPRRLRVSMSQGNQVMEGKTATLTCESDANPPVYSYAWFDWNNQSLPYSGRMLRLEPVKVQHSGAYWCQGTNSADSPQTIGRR

Take `C#CCOCCOCCO[C@@]1(C(=O)O)O[C@@H]([C@H](O)[C@H](O)CNC(=O)Cc2ccc(-c3ccccc3)cc2)[C@H](NC(=O)CO)[C@@H](NC(=O)CC)[C@@H]1O` [Compound 178, (2R,3S,4R,5R,6R)-6-((1R,2R)-3-(2-([1,1′-biphenyl]-4-yl)acetamido)-1,2-dihydroxypropyl)-3-hydroxy-5-(2-hydroxyacetamido)-2-(2-(2-(prop-2-yn-1-yloxy)ethoxy)ethoxy)-4-propionamidotetrahydro-2H-pyran-2-carboxylic acid]: the Kd was 1 to 10 µM in experiment [1], more than 10 µM in experiment [2] and 1 to 10 µM in experiment [3].
For the compound `C#CCOCCOCCO[C@]1(C(=O)O)C[C@H](O)[C@@H](NC(=O)CO)[C@H]([C@H](O)[C@H](O)CNC(=O)c2cc3c(s2)-c2ccccc2OC3)O1` [Compound 179, (2R,4S,5R,6R)-6-((1R,2R)-1,2-dihydroxy-3-(4H-thieno[3,2-c]chromene-2-carboxamido)propyl)-4-hydroxy-5-(2-hydroxyacetamido)-2-(2-(2-(prop-2-yn-1-yloxy)ethoxy)ethoxy)tetrahydro-2H-pyran-2-carboxylic acid], the Kd was less than 1 µM in experiment [1], more than 10 µM in experiment [2] and 1 to 10 µM in experiment [3].
For `C#CCOCCCCCCO[C@]1(C(=O)O)C[C@H](O)[C@@H](NCC(=O)N(C)C)[C@H]([C@H](O)[C@H](O)CNC(=O)Cc2ccc(Cl)cc2)O1` [Compound 180, (2R,4S,5R,6R)-6-((1R,2R)-3-(2-(4-chlorophenyl)acetamido)-1,2-dihydroxypropyl)-5-((2-(dimethylamino)-2-oxoethyl)amino)-4-hydroxy-2-((6-(prop-2-yn-1-yloxy)hexyl)oxy)tetrahydro-2H-pyran-2-carboxylic acid], in that order: more than 10 µM, 1 to 10 µM and 1 to 10 µM.
In the case of `C#CCOCCCCCCO[C@]1(C(=O)O)C[C@H](O)[C@@H](NCC(=O)NC)[C@H]([C@H](O)[C@H](O)CNC(=O)Cc2ccc(Cl)cc2)O1` [Compound 181, (2R,4S,5R,6R)-6-((1R,2R)-3-(2-(4-chlorophenyl)acetamido)-1,2-dihydroxypropyl)-4-hydroxy-5-((2-(methylamino)-2-oxoethyl)amino)-2-((6-(prop-2-yn-1-yloxy)hexyl)oxy)tetrahydro-2H-pyran-2-carboxylic acid], the Kd in experiment [1], in experiment [2] and in experiment [3] was 1 to 10 µM throughout.
For the compound `C#CCOCCCCCCO[C@]1(C(=O)O)C[C@H](O)[C@@H](NCC(N)=O)[C@H]([C@H](O)[C@H](O)CNC(=O)Cc2ccc(Cl)cc2)O1` [Compound 182, (2R,4S,5R,6R)-5-((2-amino-2-oxoethyl)amino)-6-((1R,2R)-3-(2-(4-chlorophenyl)acetamido)-1,2-dihydroxypropyl)-4-hydroxy-2-((6-(prop-2-yn-1-yloxy)hexyl)oxy)tetrahydro-2H-pyran-2-carboxylic acid], the Kd in experiment [1], in experiment [2] and in experiment [3] was 1 to 10 µM in each case.
With `C#CCOCCCCCCO[C@]1(C(=O)O)C[C@H](O)[C@@H](NC(=O)C(C)O)[C@H]([C@H](O)[C@H](O)CNC(=O)Cc2ccc(Cl)cc2)O1` (stereo partly drawn) [Compound 183, (2R,4S,5R,6R)-6-((1R,2R)-3-(2-(4-chlorophenyl)acetamido)-1,2-dihydroxypropyl)-4-hydroxy-5-(2-hydroxypropanamido)-2-((6-(prop-2-yn-1-yloxy)hexyl)oxy)tetrahydro-2H-pyran-2-carboxylic acid], the Kd in experiment [1] is 1 to 10 µM; in experiment [2], 1 to 10 µM; in experiment [3], less than 1 µM.
Take `C#CCOCCCCCCO[C@]1(C(=O)O)C[C@H](O)[C@@H](NC(=O)CN)[C@H]([C@H](O)[C@H](O)CNC(=O)Cc2ccc(Cl)cc2)O1` [Compound 184, (2R,4S,5R,6R)-5-(2-aminoacetamido)-6-((1R,2R)-3-(2-(4-chlorophenyl)acetamido)-1,2-dihydroxypropyl)-4-hydroxy-2-((6-(prop-2-yn-1-yloxy)hexyl)oxy)tetrahydro-2H-pyran-2-carboxylic acid]: the Kd in experiment [1], in experiment [2] and in experiment [3] was 1 to 10 µM each time.
With `C#CCOCCCCCCO[C@]1(C(=O)O)C[C@H](O)[C@@H](NC(=O)NCCO)[C@H]([C@H](O)[C@H](O)CNC(=O)Cc2ccc(Cl)cc2)O1` [Compound 185, (2R,4S,5R,6R)-6-((1R,2R)-3-(2-(4-chlorophenyl)acetamido)-1,2-dihydroxypropyl)-4-hydroxy-5-(3-(2-hydroxyethyl)ureido)-2-((6-(prop-2-yn-1-yloxy)hexyl)oxy)tetrahydro-2H-pyran-2-carboxylic acid], the Kd in experiment [1] was 1 to 10 µM; in experiment [2], 1 to 10 µM; in experiment [3], less than 1 µM.
Turning to `C#CCOCCCCCCS[C@]1(C(=O)O)C[C@H](O)[C@@H](NC(=O)CO)[C@H]([C@H](O)[C@H](O)CNC(=O)Cc2ccc(Cl)cc2)O1` [Compound 186, (2S,4S,5R,6R)-6-((1R,2R)-3-(2-(4-chlorophenyl)acetamido)-1,2-dihydroxypropyl)-4-hydroxy-5-(2-hydroxyacetamido)-2-((6-(prop-2-yn-1-yloxy)hexyl)thio)tetrahydro-2H-pyran-2-carboxylic acid], the Kd in experiment [1], in experiment [2] and in experiment [3] was less than 1 µM in each case.
`C#CCNC(=O)c1ccc(CS[C@]2(C(=O)O)C[C@H](O)[C@@H](NC(=O)CO)[C@H]([C@H](O)[C@H](O)CNC(=O)Cc3ccc(Cl)cc3)O2)cc1` [Compound 187, (2S,4S,5R,6R)-6-((1R,2R)-3-(2-(4-chlorophenyl)acetamido)-1,2-dihydroxypropyl)-4-hydroxy-5-(2-hydroxyacetamido)-2-((4-(prop-2-yn-1-ylcarbamoyl)benzyl)thio)tetrahydro-2H-pyran-2-carboxylic acid]: the Kd in experiment [1], in experiment [2] and in experiment [3] was less than 1 µM in each case.
`C#CCOCCCCCCO[C@]1(C(=O)O)C[C@H](O)[C@@H](NC(=O)C(=O)Nc2ccccc2)[C@H]([C@H](O)[C@H](O)CNC(=O)Cc2ccc(Cl)cc2)O1` [Compound 188, (2R,4S,5R,6R)-6-((1R,2R)-3-(2-(4-chlorophenyl)acetamido)-1,2-dihydroxypropyl)-4-hydroxy-5-(2-oxo-2-(phenylamino)acetamido)-2-((6-(prop-2-yn-1-yloxy)hexyl)oxy)tetrahydro-2H-pyran-2-carboxylic acid]: the Kd is less than 1 µM in experiment [1], 1 to 10 µM in experiment [2] and less than 1 µM in experiment [3].
Regarding `C#CCOCCCCCCO[C@]1(C(=O)O)C[C@H](O)[C@@H](NC(=O)C(=O)NC)[C@H]([C@H](O)[C@H](O)CNC(=O)Cc2ccc(Cl)cc2)O1` [Compound 189, (2R,4S,5R,6R)-6-((1R,2R)-3-(2-(4-chlorophenyl)acetamido)-1,2-dihydroxypropyl)-4-hydroxy-5-(2-(methylamino)-2-oxoacetamido)-2-((6-(prop-2-yn-1-yloxy)hexyl)oxy)tetrahydro-2H-pyran-2-carboxylic acid], the Kd was 1 to 10 µM in experiment [1], 1 to 10 µM in experiment [2] and less than 1 µM in experiment [3].
